The record followed here is patent US4505854A, “Optically active dipeptides and the use thereof as tissue dissolving and histolytic agent in human beings” (Nattermann & Cie GmbH, priority 1981, dated 1985).

Where a name gives a salt, the structure may show the parent alone.

The subject of data set [1] is healthy guineapig skin. To be noted: for activity (induction of necrosis, activation of macrophages): comparison of stereoisomeric 2-phenylglycyl-2-phenylglycine dipeptides; for histolysis / local changes at the administration site: 25 or 50 mg/animal (control 10.7 mg/animal), 7 days. The text has this:
They were then autopsied and the injection sites (skin and muscle) were subjected to pathological-anatomical and pathological-histological evaluation.
This is a chemotactic and activating action on macrophages, which also has a tissue dissolving effect. No systemic toxic symptoms or clinically detectable changes could be observed in any of the experimental animals.

A short description of data set [2]: acute toxicity, intravenous administration to rodents.
The mark [3] stands for this setting: local administration, guineapig skin.

For `N[C@H](C(=O)N[C@H](C(=O)O)c1ccccc1)c1ccccc1` [L-2-phenylglycyl-L-2-phenylglycine, reference compound], the “activity (induction of necrosis, activation of macrophages)” value (from here on “activity”) in data set [1] was “no activity”.
Turning to `N[C@@H](C(=O)N[C@@H](C(=O)O)c1ccccc1)c1ccccc1`, the “activity” value in data set [1] was “outstanding properties to induce necrosis and activate macrophages”. For the same compound, the “general tolerance / systemic toxic symptoms” value in data set [1] (in vivo) is reported as “no indications of general intolerance”. Moreover, in data set [1] (setting [3]), the “macrophage and giant cell infiltration at the administration site” value is “massive infiltration of macrophages and giant cells”; the “histolysis / local changes at the administration site” value (shortened to “histolysis / local changes”) is “Local and sharply delineated histolysis”. Further, the LD50 in data set [2] (acute experiment, administered intravenously (to rodents)) is listed as 1,000 mg/kg. For the same compound, the “toxicity, times lower than prior dipeptides of essential aminoacids” value in data set [2] (compared with 300 mg/kg intravenously (rodents)) is 3 times lower.
Take `NC(C(=O)NC(C(=O)O)c1ccccc1)c1ccccc1` (mixture of isomers) [reference compound]: in data set [1], the “activity” value is recorded as “only a very low activity”. Moreover, in data set [1] (setting [3]), the “histolysis / local changes” value is reported as “no local changes”.
On to `NCC(=O)O` [glycine hydrobromide, reference compound], for which the “histolysis / local changes” value in data set [1] (setting [3]) is “no local changes”.
